Measured values taken from patent publication US20250319140A1, “COMPOSITION” (MEIJI CO., LTD., priority 2019, published 2025).

How the values were obtained:
[1] = Weight gain suppressing effect in mice fed a high fat diet (body weight, weight gain, fat weight around the testes); assay type: in vivo; conditions: male C57BL/6J mice, compared with control group
Experimental: Male, 8-week-old C57BL/6J mice were divided into 5 groups and fed with a normal diet (AIN-93M) (manufactured by Oriental Yeast Co., Ltd.) or a high fat diet (HFD-60) (manufactured by Oriental Yeast Co., Ltd.). The groups fed with a high fat diet were administered with fructo-oligosaccharide (hereinafter, also referred to as “FOS”), a propionic acid bacterium (Propionibacterium freudenreichii ET-3, Accession No. FERM BP-8115, hereinafter also referred to as “P bacterium”), or both FOS and a propionic acid bacterium (hereinafter, also referred to as “FOS+P bacterium”), and bred for 8 weeks. The group fed with the high fat diet, but not administered with FOS and a propionic acid bacterium was defined as a control group. Meioligo™ P (manufactured by Meiji Food Materia Co., Ltd.) was used as FOS, which was incorporated in the high fat diet in an amount of 5% by mass, and administered. A bacterial solution (living cells) activated and cultured in GAM bouillon (manufactured by Nissui Pharmaceutical Co., Ltd.) was washed with physiological saline, and then the number of propionic acid bacteria was adjusted to 5×10^9 cfu/mL to prepare a propionic acid bacterium. This bacterial solution was forcibly administered orally at a dose of 0.2 mL once daily every day from the start date to the end date of the test. To the groups not administered with the propionic acid bacterium (normal diet group, control group and FOS-administered group), physiological saline was forcibly administered orally at a dose of 0.2 mL once daily every day from the start date to the end date of the test. The body weight during the test period, the fat weight around the testes at the time of dissection, and the propionic acid concentration in feces collected at the end day of the test were measured, and the amount of weight gain was calculated from the body weights at the start and end of the test, and used for evaluation.

[2] = system: propionic acid production in the intestine; assay: Propionic acid concentration in feces of high fat diet-fed mice, measured by HPLC; assay type: in vivo; conditions: male C57BL/6J mice, feces collected at the end day of the test, compared with control group, P <0.05 paired t-test for the combination
Experimental: Male, 8-week-old C57BL/6J mice were divided into 5 groups and fed with a normal diet (AIN-93M) (manufactured by Oriental Yeast Co., Ltd.) or a high fat diet (HFD-60) (manufactured by Oriental Yeast Co., Ltd.). The groups fed with a high fat diet were administered with fructo-oligosaccharide (hereinafter, also referred to as “FOS”), a propionic acid bacterium (Propionibacterium freudenreichii ET-3, Accession No. FERM BP-8115, hereinafter also referred to as “P bacterium”), or both FOS and a propionic acid bacterium (hereinafter, also referred to as “FOS+P bacterium”), and bred for 8 weeks. The group fed with the high fat diet, but not administered with FOS and a propionic acid bacterium was defined as a control group. Meioligo™ P (manufactured by Meiji Food Materia Co., Ltd.) was used as FOS, which was incorporated in the high fat diet in an amount of 5% by mass, and administered. […] The body weight during the test period, the fat weight around the testes at the time of dissection, and the propionic acid concentration in feces collected at the end day of the test were measured, and the amount of weight gain was calculated from the body weights at the start and end of the test, and used for evaluation.
The propionic acid concentration in the feces was measured by HPLC after extracting the propionic acid from the feces. […]

Propionibacterium freudenreichii ET-3 [propionic acid bacterium]
body weight ([1]; high fat diet (HFD-60), from the 6th week on of 8 weeks breeding): lower in the propionic acid bacterium-administered group than those in the control group | fat weight around the testes ([1]; high fat diet, at dissection at end of 8-week test): low | amount of weight gain ([1]; high fat diet, end day of the test (8 weeks) relative to initial body weight): low | propionic acid concentration in the feces [2]: clearly higher than that in the control group
